One test deals with RAW 264.7 cells. The test can be described thus: PGE2 production/accumulation in LPS-stimulated RAW 264.7 cells. Type of test: cell-based, murine. The following applies: for inhibition at 10 µg/mL: Mus musculus, RAW264.7, 16 h, read-out: PGE2 % Inhibition or (Increase).
For a further test, the system named is bovine chondrocytes. The test can be described thus: PGE2 production in LPS stimulated bovine chondrocytes (radioimmunoassay). The format is cell-based. The following applies: FIGS. 3 and 9, words. The procedure: After 48 hours the medium was changed and the cells were incubated with CMT-3 or N-monomethyl arginine (NMMA) for 2 hours before stimulating them with 100 μg/ml LPS. DMSO was used as a carrier for the modulators and the DMSO concentration was maintained (<0.01% v/v) in the cultures. Equivalent amounts of DMSO was also added to the control cultures. The levels of COX-2 dependent PGE2 release was assayed after 72 hrs by radioimmunoassay. […] The data represents mean±SD which was evaluated by T test where n=3.

Test [1] relates to OA-affected cartilage. The test can be described thus: Spontaneous PGE2 release by OA-affected cartilage (ex vivo organ culture). Type of test: cell-based, human.
Test [2] relates to OA-affected cartilage. Description: Spontaneous nitrite/nitric oxide release by OA-affected cartilage (ex vivo organ culture). The format is cell-based, human.
The test system of a further test is TNFα. The test can be described thus: TNFα release in the medium by HEK 293 cells permanently transfected with human proTNFα (ELISA). The format is cell-based. The following applies: words.
For test [3] the following is noted: words; cited from earlier work.
The mark [4] stands for this setting: Experiment II, LPS 100 ng/ml, compound 10 μg/ml, 16 hours.
Where [5] appears, read: human OA-affected cartilage, words.

Here are results for one compound from US6319910A, “Method for inhibiting cyclooxygenase-2 and tumor necrosis factor alpha” (Hospital for Joint Diseases, priority 1998, dated 2001).

Structures are written as SMILES. Entries after “also recorded” stand apart in the source; their conditions may differ. Where two headings read alike, the source gives them in different places.

Take `NC(=O)C1=C(O)C2(O)C(=O)C3=C(O)c4c(O)cccc4CC3CC2CC1=O` (stereo not shown) [CMT-3, 6-demethyl-6-deoxy-4-dedimethylaminotetracycline]: the PGE2 accumulation in the test on RAW 264.7 cells (16 h, 10 ug/mL) is 8.7 ± 2.4 ng/mL; in the test with RAW 264.7 cells (setting [4]), 6.5 ± 0.5 ng/mL. For the same compound, the “Effect on L-NMMA induced PGE2 production” value in the test on RAW 264.7 cells (FIG. 1, CMT-3+L-NMMA, LPS 100 ng/ml, words) is reported as “blocks L-NMMA induced PGE2 production”. In addition, the “Effect on PGE2 production” value was “blocks both NO and PGE2 production” in the test with RAW 264.7 cells (FIG. 1, LPS 100 ng/ml, 16 hours, words); “inhibit” with RAW 264.7 cells (FIG. 2, LPS 100 ng/ml, words); “inhibit NO and PGE2 production” in the test on bovine chondrocytes (LPS 100 μg/ml, 72 hrs); “significantly inhibit; also recorded: inhibits COX-2 expression and PGE2 production” in the test on OA-affected cartilage [1] (setting [5]). Besides, the inhibition at 10 µg/mL came to 66% with RAW 264.7 cells (Experiment I, LPS 100 ng/ml, compound 10 μg/ml, 16 hours) and 67% in the test with RAW 264.7 cells (setting [4]). Also, the “Effect on COX-2 activity” value in the test with RAW 264.7 cells (independent of intracellular NO, words) is reported as “inhibits COX-2 activity independent of intracellular NO concentrations”. The “Effect on L-NMMA induced PGE2 up-regulation” value in the test on bovine chondrocytes is “inhibits the L-NMMA induced PGE2 up-regulation”. In addition, the inhibition at 5 µg/mL in the test with OA-affected cartilage [1] (Homo sapiens, Table 2, 5 μg/ml) came to 60%. In the test with OA-affected cartilage [1] (Table 2, 5 μg/ml), this compound gave a PGE2 of 88.0 ± 21.4 ng/mL. The compound also gave a Nitrite in the test with OA-affected cartilage [2] (Table 2, 5 μg/ml) of 75.0 ± 25.0 µM. Also, in the test with OA-affected cartilage [2] (setting [5]), the “Effect on NO production” value was “significantly inhibit; also recorded: inhibiting NO production”. Also, in the test on TNFα (FIG. 7), the “Effect on TNFα release in the medium” value is given as “inhibits TNFα release in the medium in a dose dependent manner”. In the test on TNFα (FIG. 8, 16 hours), the “Effect on spontaneous TNFα release” value was “inhibit the spontaneous TNFα release”. Moreover, the “Inhibition of TNFα (summary statement)” value with TNFα (HEK 293 cells transfected with proTNFα cDNA, low levels) was “inhibiting TNFα”. The Antimicrobial activity entry in test [3] is on record as “no antimicrobial activity”.
